Data from patent EP4643860A1, “USE OF ECTOIN OR DERIVATIVE THEREOF IN PREVENTING AND/OR AMELIORATING CELL DAMAGE CAUSED BY IRRITANT, AND METHOD” (Bloomage Biotechnology Corporation Limited, priority 2022, dated 2024).

Tests used:
[1] = Cell activity (MTT) after treatment with acetaldehyde alone; assay type: cell-based; conditions: human, ca9-22 cells, 1 day, T/NT
From the text: The absorbance of each well at 550nm was detected by a microplate reader. […] NT was taken as 100%, and the ratio of T/NT of the sample well was taken as the cell activity, the results of which are shown in Table 3. On the basis of meeting the requirements of significant difference, the greater the cell activity %, the better the effect of inhibiting cell damage caused by acetaldehyde. Table 3 Cell activity results

CA9-22 cells [2] = assay: Cell activity (MTT) of acetaldehyde-treated cells with ectoine; assay type: cell-based
Experimental: Experimental sample solution: ectoine powder and 17.7 M acetaldehyde were diluted with DMEM culture medium respectively, and then the two were mixed in different ratios to prepare experimental sample solutions with different final concentrations.
The absorbance of each well at 550nm was detected by a microplate reader. […] NT was taken as 100%, and the ratio of T/NT of the sample well was taken as the cell activity. The larger the cell activity %, the better the effect of inhibiting cell damage caused by acetaldehyde. Table 4 Cell activity results

CA9-22 cells [3] = assay: Inflammatory factor IL-6 induced by Pg.LPS (ELISA); assay type: cell-based; conditions: vs Pg.LPS alone (FIG. 3)
Experimental: Experimental materials: Porphyromonas gingivalis lipopolysaccharide (Pg.LPS) (purchased from Sigma), ectoine (from Bloomage Biotechnology Corporation Limited), and DMEM culture medium.
Experimental sample solution: ectoine and Porphyromonas gingivalis lipopolysaccharide were diluted with DMEM culture medium to prepare an experimental sample solution containing a final concentration of 0.001 wt% ectoine + 1 µg/ml Pg.LPS.
CA9-22 cells were cultured in a 24-well plate. After complete attachment, the above experimental sample was added. After 24 hours, the cell culture supernatant was collected. The absorbance at […] and 570 nm was detected by enzyme-linked immunosorbent assay (ELISA), and the concentration of inflammatory factor IL-6 was calculated based on the absorbance.
(§1) According to the method in Example 2.1, an experimental sample solution containing a final concentration of 0.01wt% ectoine + 1µg/ml Pg.LPS was prepared, and the concentration of the inflammatory factor IL-6 was calculated. Other experimental processes not mentioned were the same as those in Example 2.1.
as §1, with “0.05wt% ectoine+1µg/ml” for “0.01wt% ectoine + 1µg/ml”
Statistical analysis: t-test statistical analysis was used to compare each group with group treated with Pg.LPS alone. * indicates p<0.05, which is considered to be of statistical difference. ** indicates p<0.01, which is considered to be of significant statistical difference, and *** indicates p<0.001, which is considered to be of extremely significant statistical difference.
Experimental materials: Porphyromonas gingivalis lipopolysaccharide (Pg.LPS) (purchased from Sigma), ACHA (from Bloomage Biotechnology Corporation Limited), and DMEM culture medium. […]

HGF-1 cells [4] = assay: ROS generation under CSE induction (DCFH-DA fluorescence); assay type: cell-based; conditions: 24 h pre-incubation, 5% CSE 3 h, vs control group (FIG. 1)
Experimental: Ectoin (purchased from Bloomage Biotechnology) was weighed and dissolved in HGF-1 cell (gingival fibroblast) complete culture medium (containing 10% FBS, 1% penicillin-streptomycin), to prepare 100 µg/mL and 500 µg/mL ectoine solutions, respectively.
(§2) Preparation of Cigarette Smoke Extract (CSE): The gas collection bottle was sterilized and the HGF-1 cell culture medium was filled into the gas collection bottle. A certain brand of cigarette was fixed on the long tube end of the gas collection bottle, and the short tube end was connected to a vacuum pump. The vacuum pump was turned on and the cigarette was lighted, so that the cigarette smoke entered the culture medium from the long tube end. In this way, cigarette smoke extract was prepared.
Test method: Preparation of a DCFH-DA solution with a final concentration of 10 µM using phenol red-free culture medium.
HGF-1 cells were seeded into a 96-well plate at a density of 30,000 cells/well and cultured at 37°C under 5% CO2 for later use. After 24 hours for cell attachment, a blank group, a control group, and an experimental group containing 100µg/mL and […] ectoine, respectively, were set up, with 100µL/well. […] The fluorescence intensity was measured at an excitation wavelength of 485nm and an emission wavelength of 538nm. […]

HGF-1 cells [5] = assay: TNF-α generation under CSE induction (ELISA); assay type: cell-based; conditions: 24 h pre-incubation, 5% CSE 24 h, vs control group (FIG. 2)
Experimental: Ectoine (purchased from Bloomage Biotechnology) was weighed separately and dissolved in HGF-1 cell complete culture medium (containing 10% FBS, 1% penicillin-streptomycin), to prepare 100 µg/mL and 500 µg/mL ectoine solutions, respectively.
as §2
Test method: HGF-1 cells were seeded into a 96-well plate at a density of 30,000 cells/well and cultured at 37°C under 5% CO2 for later use. […] The secretion of TNF-α was detected using an ELISA detection kit. At the same time as the ELISA detection, cell lysate was added to the 96-well plate and centrifugation was performed, and the supernatant was taken for BCA protein quantification. After homogenization, the control group was used as a benchmark, and the relative content of TNF-α was expressed as a percentage. […]

in vitro = conditions: human, ca9-22 cells, Cell activity
Experimental: (§3) Experimental sample solutions: ectoine powder was dissolved in DMEM culture medium to prepare experimental sample solutions with different final concentrations, and the concentrations were shown in Table 2.
(§4) Methods: CA9-22 cells purchased from ATCC were co-cultured with different experimental sample solutions for 1 day, then the experimental sample solution was removed and MTT was added. After 3 hours, the supernatant was carefully sucked out and dimethyl sulfoxide (DMSO) was added. The absorbance of each well at 550 nm was detected by a microplate reader. The untreated well was used as the control, the absorbance of the sample well was defined as T, and the absorbance of the untreated well was defined as NT. NT was taken as 100%, and the ratio of T/NT of the sample wells was taken as the cell activity. Table 2 Cell activity results

CA9-22 cells [6] = assay: in vitro
Experimental: as §3, §4

SMILES | viability at 24 h, 100 µM ([1]; Acetaldehyde 0.0001M) | viability at 24 h, 1000 µM ([1]; Acetaldehyde 0.001M) | viability at 24 h, 5000 µM ([1]; Acetaldehyde 0.005M) | viability at 24 h, 10000 µM ([1]; Acetaldehyde 0.01M) | viability at 24 h, 20000 µM ([1]; Acetaldehyde 0.02M) | viability at 20000 µM (CA9-22 cells [2]; Homo sapiens, Ca9-22, 24 h, read-out: Cell activity) | concentration of IL-6 caused by Pg.LPS (CA9-22 cells [3]; 0.001wt% ectoine + 1 µg/ml Pg.LPS, 24 h (Example 2.1)) | concentration of IL-6 caused by Pg.LPS (CA9-22 cells [3]; 0.01wt% ectoine + 1µg/ml Pg.LPS, 24 h (Example 2.2)) | concentration of IL-6 caused by Pg.LPS (CA9-22 cells [3]; 0.05wt% ectoine + 1µg/ml Pg.LPS, 24 h (Example 2.3)) | ROS content after CSE oxidative irritation (HGF-1 cells [4]; 100µg/mL ectoine) | ROS content after CSE oxidative irritation (HGF-1 cells [4]; 200µg/mL ectoine) | TNF-α content after CSE irritation (HGF-1 cells [5]; 100µg/mL ectoine) | TNF-α content after CSE irritation (HGF-1 cells [5]; 500µg/mL ectoine) | cell activity of CA9-22 after the addition of ectoine (CA9-22 cells [2]; Acetaldehyde 0.02 M + ectoine 0.02-0.1 wt%, vs acetaldehyde-treated group) | viability at 24 h (in vitro) | cytotoxicity (CA9-22 cells [6])
CC=O [Acetaldehyde, acetaldehyde] | 96% | 93% | 93% | 89% | 70% | 70% | – | – | – | – | – | – | – | – | – | –
CC1=NC(C(=O)O)CCN1 (stereo not shown) [ectoine, 2-methyl-1,4,5,6-tetrahydropyrimidin-4-carboxylic acid] | – | – | – | – | – | – | can significantly reduce the concentration of IL-6 | can significantly reduce the concentration of IL-6 | can significantly reduce the concentration of IL-6 | can inhibit the increase of ROS content | can inhibit the increase of ROS content | can inhibit the increase of TNF-α content | can inhibit the increase of TNF-α content | increased | 112% | no cytotoxicity
